For five compounds, water solubility results are on record in patent US20180213771A1, “COMPOSITION, METHOD FOR PRODUCING COMPOSITION, AND PESTICIDE COMPOSITION” (Sumitomo Chemical Company, Limited, priority 2015, published 2018).

The nature of this series: Water solubility of the agrochemical active compound alone at 25° C. It counts as physicochemical.
With `CCNc1nc(CC)c(C(=O)NC(C#N)c2cccs2)s1` (centres unmarked) [ethaboxam, reference compound], the water solubility result was “about 5 ppm”. As for `C#CCN1C(=O)COc2cc(F)c(N3C(=O)C4=C(CCCC4)C3=O)cc21` [flumioxazin, reference compound], the entry is “about 2 ppm”. The result for `CC1CC(C)(C)c2cccc(NC(=O)c3cn(C)nc3C(F)F)c21` (centres unmarked) [agrochemical active compound A, N-(1,1,3-trimethylindan-4-yl)-1-methyl-3-difluoromethylpyrazole-4-carboxylic acid amide] reads “about 20 ppm”; that for `CCS(=O)(=O)c1cccnc1-c1nc2cc(S(=O)(=O)C(F)(F)F)ccc2o1` [agrochemical active compound B, 2-[3-(Ethanesulfonyl)pyridin-2-yl]-5-(trifluoromethanesulfonyl)benzoxazole], “about 6 ppm”. On to `Cc1cccc(-n2nnn(C)c2=O)c1COc1ccn(-c2ccc(Cl)cc2)n1` [agrochemical active compound C, 1-[2-({[1-(4-Chlorophenyl)-H-pyrazol-3-yl]oxy}methyl)-3-methylphenyl]-4-methyl-5-oxo-4,5-dihydro-1H-tetrazole], for which the water solubility entry is reported as “about 0.03 ppm”.
